Source: patent US4086417A, “Cytidine nucleotide derivatives” (Asahi Kasei Kogyo Kabushiki Kaisha, priority 1974, dated 1978)
Where a name gives a salt, the structure may show the parent alone.

Test system: leukemia L-1210
Assay: Antitumour activity in mice inoculated intraperitoneally with leukemia L-1210 (survival, T/C)
Assay type: in vivo, CDF-1 male mice
Details: for response vs control in vivo at 100 mg/kg / response vs control in vivo at 200 mg/kg / response vs control in vivo at 400 mg/kg: Mus musculus, L1210, ip, directly after injection of L-1210, after 2 days and after 6 days; for response vs control in vivo at 100 mg/kg: 100 mg/kg i.p.; for response vs control in vivo at 200 mg/kg: 200 mg/kg i.p.; for response vs control in vivo at 400 mg/kg: 400 mg/kg i.p.; for Antileukemial effect on mice (in words): L-1210 in mice, conclusions in words
Description: The antitumour activity for mice of the test material was evaluated by means of survival rate comparison, T/C (%), that is, 100 times the mean survival period of the groups injected with the test material divided by the mean survival period of the comparison groups which were not injected with the test material.
Further, for comparison, the following materials were also subjected to the same biological test: […]

Structure (SMILES) | response vs control in vivo at 100 mg/kg | response vs control in vivo at 200 mg/kg | response vs control in vivo at 400 mg/kg | Antileukemial effect on mice (in words)
CCCCCCCCCCCC(=O)Nc1ccn([C@@H]2O[C@H](COP(=O)(O)O)[C@@H](O)[C@@H]2O)c(=O)n1 [N^4 -Lauroyl-5'-PNa] | 110% | 115% | 115% | 
CC(=O)Nc1ccn([C@@H]2O[C@H](COP(=O)(O)O)[C@@H](O)[C@@H]2O)c(=O)n1 [N^4 -Acetyl-5'-PNa] | 101% | 99% | 99% | 
CCCCCCCCCCCCCCCCCCC(=O)Nc1ccn([C@@H]2O[C@H](CO)[C@@H](O)[C@@H]2O)c(=O)n1 [N^4 -Nonadecanoyl-Ara-C] | 382% | 216% | 134% | 
CCCCCCCCCCCCCCCCCCCCCC(=O)Nc1ccn([C@@H]2O[C@H](COP(=O)(O)O)[C@@H](O)[C@@H]2O)c(=O)n1 [N^4 -Behenoyl-5'-PNa] | 316% | 280% | 270% | 
CCCCCCCCCCCCCCCCCC(=O)Nc1ccn([C@@H]2O[C@H](CO)[C@@H](O)[C@@H]2OP(=O)(O)O)c(=O)n1 [N^4-stearoyl-Ara-C-2'-PNa, N^4-stearoyl-1-β-D-arabinofuranosylcytosine-2'-phosphate monosodium salt] | 228% | 146% | 121% | 
CCCC(=O)Nc1ccn([C@@H]2O[C@H](CO)[C@@H](O)[C@@H]2O)c(=O)n1 [N^4 -Butyryl-Ara-C] | 131% | 131% | 139% | 
CCCCCC(=O)Nc1ccn([C@@H]2O[C@H](CO)[C@@H](O)[C@@H]2O)c(=O)n1 [N^4 -Caproyl-Ara-C] | 125% | 133% | 150% | 
CCCCCC(=O)Nc1ccn([C@@H]2O[C@H](COP(=O)(O)O)[C@@H](O)[C@@H]2O)c(=O)n1 [N^4 -Caproyl-5'-PNa] | 103% | 105% | 101% | 
CCCCCCCCCCCCCCC(=O)Nc1ccn([C@@H]2O[C@H](CO)[C@@H](O)[C@@H]2O)c(=O)n1 [N^4 -Pentadecanoyl-Ara-C] | 302% | 287% | 91% | 
CCCCCCCCCCCCCCC(=O)Nc1ccn([C@@H]2O[C@H](COP(=O)(O)O)[C@@H](O)[C@@H]2O)c(=O)n1 [N^4 -Pentadecanoyl-5'-PNa] | > 302% | > 287% | 86% | 
CCC(=O)Nc1ccn([C@@H]2O[C@H](CO)[C@@H](O)[C@@H]2O)c(=O)n1 [N^4 -Propionyl-Ara-C] | 131% | 131% | 135% | 
CCC(=O)Nc1ccn([C@@H]2O[C@H](COP(=O)(O)O)[C@@H](O)[C@@H]2O)c(=O)n1 [N^4 -Propionyl-5'-PNa] | 99% | 100% | 101% | 
Nc1ccn([C@@H]2O[C@H](COP(=O)(O)O)[C@@H](O)[C@@H]2O)c(=O)n1 [Ara-C-5'-p.circle., 1-β-D-arabinofuranosylcytosine-5'-phosphate] | 119% | 131% | 143% | inferior to 1-β-D-arabinofuranosylcytosine in antileukemical effect on mice
CCCCCCCC(=O)Nc1ccn([C@@H]2O[C@H](CO)[C@@H](O)[C@@H]2O)c(=O)n1 [N^4 -Caprylyl-Ara-C] | 123% | 127% | 163% | 
CCCCC/C=C\C/C=C\C/C=C\C/C=C\CCCC(=O)Nc1ccn([C@@H]2O[C@H](COP(=O)(O)O)[C@@H](O)[C@@H]2O)c(=O)n1 [N^4 -Arachidonoyl-5'-PNa, N^4-arachidonoyl-1-β-D-arabinofuranosylcytosine-5'-phosphate monosodium] | 274% | 148% | 115% | 
CCCCCCCCCCCCCCCCCCCCCC(=O)Nc1ccn([C@@H]2O[C@H](CO)[C@@H](O)[C@@H]2O)c(=O)n1 [N^4 -Behenoyl-Ara-C] | 313% | 260% | 256% | 
CCCCC/C=C\C/C=C\C/C=C\C/C=C\CCCC(=O)Nc1ccn([C@@H]2O[C@H](CO)[C@@H](O)[C@@H]2O)c(=O)n1 [N^4 -Arachidonoyl-Ara-C] | 269% | 137% | 114% | 

Structure (SMILES) | response vs control in vivo at 100 mg/kg | response vs control in vivo at 200 mg/kg | response vs control in vivo at 400 mg/kg | Antileukemial effect on mice (in words)
CCCCC/C=C\C/C=C\CCCCCCCC(=O)Nc1ccn([C@@H]2O[C@H](COP(=O)(O)O)[C@@H](O)[C@@H]2O)c(=O)n1 [N^4 -Linoleoyl-5'-PNa] | 275% | 145% | 120% | 
CCCCCCCCCCCCCCCCCC(=O)Nc1ccn([C@@H]2O[C@H](CO)[C@@H](OP(=O)(O)O)[C@@H]2OP(=O)(O)O)c(=O)n1 [N^4-stearoyl-Ara-C-2',3'-(PNa)2] | 184% | 119% | 103% | 
CCCCCCCCCCCCCCCCCCCC(=O)Nc1ccn([C@@H]2O[C@H](CO)[C@@H](O)[C@@H]2O)c(=O)n1 [N^4 -Arachidoyl-Ara-C] | 313% | 128% | 105% | 
CCCCC/C=C\C/C=C\CCCCCCCC(=O)Nc1ccn([C@@H]2O[C@H](CO)[C@@H](O)[C@@H]2O)c(=O)n1 [N^4 -Linoleoyl-Ara-C] | 268% | 140% | 112% | 
CCCCCCCCCCCCCC(=O)Nc1ccn([C@@H]2O[C@H](CO)[C@@H](O)[C@@H]2O)c(=O)n1 [N^4 -Myristoyl-Ara-C, N^4-myristoyl-1-β-D-arabinofuranosylcytosine] | 206% | 127% | 90% | 
CCCCCCCCCCCCCCCCCCCC(=O)Nc1ccn([C@@H]2O[C@H](COP(=O)(O)O)[C@@H](O)[C@@H]2O)c(=O)n1 [N^4 -Arachidoyl-5'-PNa, N^4-arachidoyl-1-β-D-arabinofuranosylcytosine-5'-phosphate monosodium] | 320% | 130% | 106% | 
CCCCCCCCCCCCCC(=O)Nc1ccn([C@@H]2O[C@H](COP(=O)(O)O)[C@@H](O)[C@@H]2O)c(=O)n1 [N^4 -Myristoyl-5'-PNa, N^4 -Myristoyl-1-β-D-arabinofuranosylcytosine-5'-phosphate monosodium] | > 219% | > 261% | 93% | 
CCCCCCCCCCCCCCCCCCC(=O)Nc1ccn([C@@H]2O[C@H](COP(=O)(O)O)[C@@H](O)[C@@H]2O)c(=O)n1 [N^4 -Nonadecanoyl-5'-PNa, N^4-nonadecanoyl-1-β-D-arabinofuranosylcytosine-5'-phosphate monosodium] | 385% | 232% | 102% | 
CCCCCCCCCC(=O)Nc1ccn([C@@H]2O[C@H](CO)[C@@H](O)[C@@H]2O)c(=O)n1 [N^4 -Capryl-Ara-C] | 159% | 188% | > 284% | 
CCCC(=O)Nc1ccn([C@@H]2O[C@H](COP(=O)(O)O)[C@@H](O)[C@@H]2O)c(=O)n1 [N^4 -Butyryl-5'-PNa] | 105% | 102% | 100% | 
CCCCCCCCCCCCCCCCCC(=O)Nc1ccn([C@@H]2O[C@H](COP(=O)(O)O)[C@@H](OP(=O)(O)O)[C@@H]2O)c(=O)n1 [N^4-stearoyl-Ara-C-3',5'-(PNa)2] | 215% | 138% | 107% | 
CCCCC(=O)Nc1ccn([C@@H]2O[C@H](COP(=O)(O)O)[C@@H](O)[C@@H]2O)c(=O)n1 [N^4 -Valeryl-5'-PNa] | 101% | 99% | 101% | 
CCCCCCCCCCCCCCCCCC(=O)Nc1ccn([C@@H]2O[C@H](CO)[C@@H](OP(=O)(O)O)[C@@H]2O)c(=O)n1 [N^4-stearoyl-Ara-C-3'-PNa] | 286% | 219% | 112% | 
CCCCCCCCCC(=O)Nc1ccn([C@@H]2O[C@H](COP(=O)(O)O)[C@@H](O)[C@@H]2O)c(=O)n1 [N^4 -Capryl-5'-PNa] | 103% | 102% | 98% | 
CC(=O)Nc1ccn([C@@H]2O[C@H](CO)[C@@H](O)[C@@H]2O)c(=O)n1 [N^4 -Acetyl-Ara-C] | 125% | 125% | 125% | 
CCCCCCCCCCCCCCCCCC(=O)Nc1ccn([C@@H]2O[C@H](COP(=O)(O)O)[C@@H](O)[C@@H]2O)c(=O)n1 [N^4-stearoyl-1-β-D-arabinofuranosylcytosine-5'-phosphate] |  |  |  | had the highest antileukemial effect on mice
CCCCCCCC(=O)Nc1ccn([C@@H]2O[C@H](COP(=O)(O)O)[C@@H](O)[C@@H]2O)c(=O)n1 [N^4 -Caprylyl-5'-PNa] | 103% | 101% | 99% | 
